# Test system: summer wheat of the cultivar 'Triso'
# Assay: Plant growth regulation test: culm stabilization of crop plants
# Type: in vivo
# Conditions: application rate of 30 to 300 g of active substance per hectare, treated at stage BBCH 31, culm length measured after ears had formed
# Experimental: With stirring, the compound of the formula (I) in question was, in the form of a water-dispersible powder, together with a surfactant (customary adjuvant at an application rate of 1 l/ha), mixed with water such that a homogenous spray liquor was formed, and applied at an application rate of 300 l of water/ha (converted).
# Seeds of summer wheat of the cultivar ‘Triso’ were sown at a depth of 1 cm in plant pots and cultivated outdoors until treatment.
# The plants were treated on a laboratory track sprayer with spray liquors of the test substances at macrostage 3 after having reached about 10% of the maximum longitudinal growth typical for the cultivar (stage BBCH 31) and, after the treatment, returned outdoors.
# After the ears had formed, the length of the culms were measured. The culm stabilization was evaluated as a percentage of the untreated control.
row,Structure (SMILES),longitudinal growth (culm length) of summer wheat
1,C=C(Cl)COC(=O)Cc1c(C)nn(-c2cccnc2)c1-c1ccsc1 [Example 3-187],effectively shortened
2,Cc1ccncc1-n1nc(C)c(CC(=O)O)c1-c1cccc(Br)c1 [Example 1-40],effectively shortened
3,COC(=O)Cc1c(C)nn(-c2cccnc2)c1-c1cc(C)ccn1 [Example 2-136],effectively shortened
4,CC#CCOC(=O)Cc1c(C)nn(-c2cccnc2)c1-c1ccc(Cl)cc1 [Example 3-118],effectively shortened
5,COC(=O)Cc1c(C)nn(-c2cccnc2)c1-c1ccc(Cl)nc1 [Example 2-134],effectively shortened
6,Cc1nn(-c2cccnc2)c(-c2ccccc2)c1CC(=O)OCC#CCCl [Example 3-109],effectively shortened
7,CCOC(=O)Cc1c(C)nn(-c2cccnc2)c1-c1ccccn1 [Example 3-227],effectively shortened
8,COC(=O)Cc1c(C)nn(-c2cnccc2C)c1-c1cccc(C(F)(F)F)c1 [Example 2-19],effectively shortened
9,COC(=O)Cc1c(CO)nn(-c2cccnc2)c1-c1ccc(Cl)cc1 [Example 2-184],effectively shortened
10,COC(=O)Cc1c(C)nn(-c2cccnc2)c1-c1cc(C)cs1 [Example 2-59],effectively shortened
11,CC#CCOC(=O)Cc1c(C)nn(-c2cccnc2)c1-c1ccccc1 [Example 3-117],effectively shortened
12,COC(=O)Cc1c(C)nn(-c2cccnc2)c1-c1ccsc1 [Example 2-63],effectively shortened
13,COC(=O)Cc1c(C)nn(-c2cccnc2)c1-c1ccccn1 [Example 2-109],effectively shortened
14,Cc1nn(-c2cccnc2)c(-c2ccc(Cl)cc2)c1CC(=O)O [Example 1-26],effectively shortened
15,COC(=O)Cc1c(C)nn(-c2cnccc2[S+](C)[O-])c1-c1ccccc1 (stereo not shown) [Example 2-71],effectively shortened
16,COC(=O)Cc1c(C#N)nn(-c2cccnc2)c1-c1ccc(Cl)cc1 [Example 2-147],effectively shortened
17,COC(=O)Cc1c(C)nn(-c2cnccc2SC)c1-c1ccc(Cl)cc1 [Example 2-45],effectively shortened
18,COC(=O)Cc1c(C)nn(-c2cccnc2)c1-c1ccc(C(C)=O)cc1 [Example 2-121],effectively shortened
19,Cc1nn(-c2cccnc2)c(-c2ccc(F)cc2)c1CC(=O)O [Example 1-120],effectively shortened
20,COC(=O)Cc1c(-c2ccccc2)nn(-c2cccnc2)c1-c1ccccc1 [Example 2-1],effectively shortened
21,Cc1nn(-c2cccnc2)c(-c2ccco2)c1CC(=O)O [Example 1-4],effectively shortened
22,Cc1ccncc1-n1nc(C)c(CC(=O)O)c1-c1ccc(Cl)c(Cl)c1 [Example 1-20],effectively shortened
23,Cc1ccncc1-n1ncc(CC(=O)O)c1-c1ccccc1 [Example 1-73],effectively shortened
24,COC(=O)Cc1c(C)nn(-c2cnccc2C)c1-c1ccc2c(c1)OCO2 [Example 2-66],effectively shortened
25,Cc1nn(-c2cccnc2)c(-c2ccc(O)nc2)c1CC(=O)O [Example 1-70],effectively shortened

row,Structure (SMILES),longitudinal growth (culm length) of summer wheat
1,COC(=O)Cc1c(C)nn(-c2cnccc2C)c1-c1cccc(Cl)c1Cl [Example 2-131],effectively shortened
2,C=C(Cl)COC(=O)Cc1c(C)nn(-c2cccnc2)c1-c1ccc(C)nc1 [Example 3-195],effectively shortened
3,Cc1ccncc1-n1nc(C)c(CC(=O)O)c1-c1ccc(C(F)(F)F)cc1 [Example 1-24],effectively shortened
4,Cc1nn(-c2ccc(Cl)nc2Cl)c(-c2ccccc2)c1CC(=O)O [Example 1-12],effectively shortened
5,Cc1nn(-c2cccnc2)c(-c2ccc(Cl)cc2)c1CC(=O)OCC1(C)COC1 [Example 3-233],effectively shortened
6,C/C=C/C(C)OC(=O)Cc1c(C)nn(-c2cccnc2)c1-c1ccccc1 (stereo not shown) [Example 3-160],effectively shortened
7,COC(=O)Cc1c(C)nn(-c2cccnc2)c1-c1ccc(Cl)c(C(F)(F)F)c1 [Example 2-47],effectively shortened
8,COC(=O)Cc1c(C)nn(-c2cccnc2)c1-c1ccc(C)cc1 [Example 2-16],effectively shortened
9,CC#CCOC(=O)Cc1c(C)nn(-c2cnccc2C)c1-c1ccccc1 [Example 3-139],effectively shortened
10,Cc1nn(-c2cccnc2)c(-c2ccc(C(F)(F)F)cn2)c1CC(=O)O [Example 1-144],effectively shortened
11,COC(=O)Cc1c(C)nn(-c2cccnc2C)c1-c1ccccc1 [Example 2-135],effectively shortened
12,Cc1ccnc(-c2c(CC(=O)O)c(C)nn2-c2cccnc2)c1 [Example 1-136],effectively shortened
13,Cc1ccncc1-n1nc(C)c(CC(=O)O)c1-c1ccccc1Cl [Example 1-22],effectively shortened
14,COC(=O)Cc1c(C)nn(-c2cnccc2C)c1-c1ccc(C)cc1 [Example 2-36],effectively shortened
15,Cc1nn(-c2cccnc2)c(-c2ccccn2)c1CC(=O)OCC1CCCO1 (stereo not shown) [Example 3-230],effectively shortened
16,Cc1ccc(-c2c(CC(=O)O)c(C)nn2-c2cccnc2)cc1 [Example 1-16],effectively shortened
17,Cc1nn(-c2cccnc2)c(-c2ccccn2)c1CC(=O)OC(C)C [Example 3-48],effectively shortened
18,Cc1ccc(-c2c(CC(=O)O)c(C)nn2-c2cnccc2C)cc1 [Example 1-36],effectively shortened
19,Cc1nn(-c2cccnc2)c(-c2ccsc2)c1CC(=O)O [Example 1-63],effectively shortened
20,C=C(Cl)COC(=O)Cc1c(C)nn(-c2cccnc2)c1-c1cc(C)cs1 [Example 3-189],effectively shortened
21,Cc1ccncc1-n1nc(C)c(CC(=O)O)c1-c1ccc(Cl)cc1Cl [Example 1-23],effectively shortened
22,COC(=O)Cc1c(C)nn(-c2cnccc2C)c1-c1ccc(C(F)(F)F)cc1 [Example 2-24],effectively shortened
23,COC(=O)Cc1c(C)nn(-c2cccnc2)c1-c1ccc(Cl)c(C)c1 [Example 2-123],effectively shortened
24,C=C(Cl)COC(=O)Cc1c(C)nn(-c2cccnc2)c1-c1ccccn1 [Example 3-203],effectively shortened
